Experimental data as given in ChEMBL document CHEMBL1156829 (Proc Natl Acad Sci U S A, 2008).
pEC50: −log10 of the molar value.

Columns and labels:
[1] = test system: Plasmodium falciparum; experiment: NOVARTIS: Inhibition of Plasmodium falciparum 3D7 (drug-susceptible) proliferation in erythrocyte-based infection assay; type: functional, organism-based; conditions: Plasmodium falciparum, 3D7
[2] = test system: Plasmodium falciparum; experiment: NOVARTIS: Inhibition of Plasmodium falciparum W2 (drug-resistant) proliferation in erythrocyte-based infection assay; type: functional, organism-based; conditions: for pEC50: Plasmodium falciparum, W2, read-out: EC50
[3] = NOVARTIS: Cytotoxicity against human hepatocellular carcinoma cell line (Huh7); type: toxicity, cell-based, Huh-7; conditions: Huh7 cells (hepatocellular carcinoma cell line)

Compound	pEC50 [1]	pEC50 [2]	CC50 [3]	EC50 [2]
CCCCCCCSc1nsc(NC(=O)CCC)n1	< 5.88	> 8.19	> 10000 nM	
CCc1ccc(C(=O)N(CCc2ccccc2)C(CC)c2nc3ccccc3c(=O)n2-c2ccccc2OC)cc1 (stereo not drawn)	6.41	8.82	> 9700 nM	
COc1ccc(CN(CC2CCN(C(=O)c3ccccc3Cl)CC2)C(=O)c2ccc(Cl)cc2Cl)cc1	5.14	5.48	24300 nM	
CN(C)c1ccc(NC(=O)c2cccnc2C(=O)O)cc1	6.49	6.08	7840 nM	
CC(C)(C)c1ccc(C=CC(=O)NCc2ccco2)cc1	6.21	6.49	1140 nM	
COc1ccc(-c2cc(C3CCN(c4nc(N)c5cc(OC)c(OC)cc5n4)CC3)n[nH]2)cc1OC	6.69	6.42	16400 nM	
C=CCSc1nc(N)c2c3c(sc2n1)CN(CCC)CC3	6.21	6.78	> 100000 nM	
CCCCCC(=O)NCCCCCCNc1ccnc2cc(Cl)ccc12	6.60	6.65	> 13900 nM	
Cc1cc2nc(NC(=N)N)nc(C)c2cc1C	5.57	< 5.03	> 100000 nM	
COc1ccc(CCNC(=O)c2cc(S(=O)(=O)N3CC(C)CC(C)C3)ccc2Sc2ccc(F)cc2)cc1OC (stereo not drawn)	5.98	5.90	> 10000 nM	
Fc1cccc(Nc2nc(NCC3CCCO3)c3ccccc3n2)c1 (stereo not drawn)	6.85	6.69	9580 nM	
Cc1ccc(Cl)cc1N1C(=O)[C@@H]2[C@H](C1=O)C1c3ccccc3C=CN1[C@@H]2C(=O)c1cccs1 (stereo partly drawn)	5.97	6.28	> 10000 nM	
CC1CCC2C(C)C(=O)OC3OC4(C)CCC1C32OO4 (stereo not drawn)	7.92	8.34	> 100000 nM	
CCCCCCCCNC(=O)C1CC1c1ccccc1 (stereo not drawn)	< 4.98	5.46	> 100000 nM	
COc1ccc(N=C2NC(=O)/C(=C\c3ccc(N(C)C)cc3)S2)cc1	5.99	< 5.78	> 10000 nM	
O=C(COc1cccc2ccccc12)NC1CCS(=O)(=O)C1 (stereo not drawn)	< 4.90	6.00	> 100000 nM	
O=S(=O)(Nc1ccc(F)cc1)N1CCCCCC1	< 4.90	5.87	> 100000 nM	
COc1ccccc1C1CC(c2ccccc2)=NN1C(=O)c1ccccc1 (stereo not drawn)	6.58	6.96	67000 nM	
CCCCN(CC(=O)N1c2ccccc2-n2cccc2C1c1ccc(OC)cc1)C(=O)Nc1cccc(F)c1 (stereo not drawn)	5.07	5.20	> 100000 nM	
CCCCCCc1cc2cc(-c3nc4ccccc4[nH]3)c(=Nc3ccccc3C)oc2cc1O	5.67		> 100000 nM	No fit
CC(C)CNc1nc(NCCCN2CCCC2)ncc1C(=O)NCCc1ccccc1	6.14	< 5.90	> 10000 nM	
CC(=O)Nc1cc([N+](=O)[O-])ccc1N1CCOCC1	< 5.81	5.82	> 10000 nM	
Cc1c(Cl)cccc1N1C(=O)C2C3c4ccccc4C(c4ccccc43)C2C1=O (stereo not drawn)	< 5.79	6.16	> 10000 nM	
Cc1cccc(-n2nc3c(c2NC(=O)c2ccc4c(c2)OCO4)CS(=O)(=O)C3)c1C	6.91	< 5.90	> 10000 nM	
CC(=O)Nc1ccc2c(c1)C(=O)N(C(C(=O)NC1CCCCC1)c1ccc([N+](=O)[O-])cc1)[C@@H](c1ccccc1)C(=O)N2 (stereo partly drawn)	< 5.90	< 6.06	7680 nM	
O=C(CCl)NCCOc1ccc(Cl)cc1Cl	6.27	6.29	13000 nM	

Compound	pEC50 [1]	pEC50 [2]	CC50 [3]	EC50 [2]
C=CC1CN2CCC1CC2[C@H](c1ccnc2ccccc12)S(=O)(=O)O (stereo partly drawn)	6.82	7.01	> 10000 nM	
CCN(CC)CCN1C(=O)c2ccccc2NC1c1ccc(N(C)C)cc1 (stereo not drawn)	6.55	6.80	> 100000 nM	
CC(C)N(CC(=O)Nc1cc(C(C)(C)C)nn1-c1ccc(Cl)cc1)C(=O)c1ccc(C(C)(C)C)cc1	5.00	5.35	> 100000 nM	
CN1CCC(CCNCc2ccc(OCC(O)CN(C)Cc3ccccc3)cc2)CC1 (stereo not drawn)	5.95	5.97	68600 nM	
Cc1ccccc1C[n+]1cc(-c2ccc(Cl)cc2)n2c1CCC2	5.86	5.77	> 100000 nM	
Cn1nc(C(F)(F)F)c(-c2ccc(F)cc2)c1NC(=O)Nc1ccc(F)cc1F	6.54	6.35	29200 nM	
COc1ccc(Nc2cc(C)nc(NCc3ccccc3)n2)cc1	6.82	6.37	16700 nM	
COc1cc(OC)c(N(C)C(=O)c2cc3c(s2)-c2ccccc2S(=O)(=O)C3)cc1Cl	6.95	6.75	> 55600 nM	
COC(=O)C1=C(C)N/C(=C/c2cc(C)n(-c3ccc(Cl)c(Cl)c3)c2C)C1=O	< 5.99	< 5.90	> 10000 nM	
Cc1c(Cl)cccc1NC(=S)N1CCCN(c2ccc(C(F)(F)F)cc2[N+](=O)[O-])CC1	6.60	6.69	51400 nM	
Cc1cc(Nc2cccc(C(F)(F)F)c2)nc(NCc2ccccc2)n1	6.75	6.26	15600 nM	
CC(C)(C)OCCN(CC(O)CN(Cc1ccccc1)C(=O)NC(c1ccccc1)c1ccccc1)S(=O)(=O)c1ccccc1 (stereo not drawn)	5.96	> 7.58	> 10000 nM	
Cc1ccc(C(=O)Oc2ccccc2-c2nc3ccccn3c2NC(C)(C)CC(C)(C)C)cc1[N+](=O)[O-]	5.91	7.17	> 10000 nM	
CCCn1c(C=NNc2nc3ccccc3[nH]2)nc2ccccc21	5.25	5.29	62800 nM	
O=C(Nc1cc(Cl)cc(Cl)c1)Nc1ccccc1C(=O)NCC1CC1	< 5.93	> 7.91	> 10000 nM	
Nc1ccc(-c2nc3cc(-c4ccc5[nH]c(-c6ccc(N)cc6)nc5c4)ccc3[nH]2)cc1	6.24	6.63	> 10000 nM	
CC(C)(C)C(=O)Nc1ccc(C23CC4CC(CC(c5ccccc5)(C4)C2)C3)cc1	6.15	< 4.90	> 100000 nM	
N=C1NC(=O)C(=CC=Cc2ccc([N+](=O)[O-])o2)S1	6.15	5.83	7210 nM	
COc1ccc(C(=O)C2CC2c2ccc(Cl)cc2)cc1 (stereo not drawn)	6.66	5.85	> 100000 nM	
Oc1ccccc1Nc1nc(NCc2ccccc2)c2ccccc2n1	6.56	5.95	12500 nM	
CCCCCCCCN[C@@H](C)[C@@H](O)c1ccc(SC(C)C)cc1	< 5.90	6.38	> 6250 nM	
O=C(C[n+]1ccc(/C=N/O)cc1)NC12CC3CC(CC(C3)C1)C2	< 4.90	5.51	42200 nM	
CC1CCCCN1CCCN(Cc1c2ccccc2cc2ccccc12)C(=O)c1ccccc1Cl (stereo not drawn)	6.06	7.51	> 1740 nM	
CCCCc1ccc(NC(C)=O)cc1	6.67	6.48	4210 nM	
CN(C)CCN(C)Cc1cc(Br)cs1	< 5.63	5.99	> 100000 nM	
